The target of test [1] is T1, human TRPV1 (Homo sapiens (Human), UniProt Q8NER1). Nature of the test: Capsaicin Activation Assay (intracellular Ca2+, FLIPR). The test is classed as cell-based. The following applies: recombinant HEK293 cells expressing hTRPV1, 50 nM capsaicin. A digest of the protocol:
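Ca2+ fluorescence was recorded by FLIPR every 1 to 5 seconds in HEK293 cells, clonally selected for stable human TRPV1 expression and plated one day ahead. Test compounds came as serial dilutions of 10 mM DMSO stocks.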

The target of test [2] is T1, human TRPV1. Kind of test: Acid Activation Assay (pH 5.0, intracellular Ca2+, FLIPR). It is filed as cell-based. The following applies: percentage of the maximal pH 5.0-induced response remaining; recombinant HEK293 hTRPV1 cells; maximum concentration tested 37.5 μM. In a few lines: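 Readout: peak [Ca2+]i fluorescence over baseline on FLIPR, expressed as percentage remaining of the maximal pH 5.0-evoked signal. Stable hTRPV1-HEK293 cells with Calcium-4 dye received compound (12 half-log concentrations, maximum 37.5 μM) 3 min before acidic pH 5.0 buffer.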

pIC50: −log10 of the molar value.

T1 sequence (Q8NER1 whole entry): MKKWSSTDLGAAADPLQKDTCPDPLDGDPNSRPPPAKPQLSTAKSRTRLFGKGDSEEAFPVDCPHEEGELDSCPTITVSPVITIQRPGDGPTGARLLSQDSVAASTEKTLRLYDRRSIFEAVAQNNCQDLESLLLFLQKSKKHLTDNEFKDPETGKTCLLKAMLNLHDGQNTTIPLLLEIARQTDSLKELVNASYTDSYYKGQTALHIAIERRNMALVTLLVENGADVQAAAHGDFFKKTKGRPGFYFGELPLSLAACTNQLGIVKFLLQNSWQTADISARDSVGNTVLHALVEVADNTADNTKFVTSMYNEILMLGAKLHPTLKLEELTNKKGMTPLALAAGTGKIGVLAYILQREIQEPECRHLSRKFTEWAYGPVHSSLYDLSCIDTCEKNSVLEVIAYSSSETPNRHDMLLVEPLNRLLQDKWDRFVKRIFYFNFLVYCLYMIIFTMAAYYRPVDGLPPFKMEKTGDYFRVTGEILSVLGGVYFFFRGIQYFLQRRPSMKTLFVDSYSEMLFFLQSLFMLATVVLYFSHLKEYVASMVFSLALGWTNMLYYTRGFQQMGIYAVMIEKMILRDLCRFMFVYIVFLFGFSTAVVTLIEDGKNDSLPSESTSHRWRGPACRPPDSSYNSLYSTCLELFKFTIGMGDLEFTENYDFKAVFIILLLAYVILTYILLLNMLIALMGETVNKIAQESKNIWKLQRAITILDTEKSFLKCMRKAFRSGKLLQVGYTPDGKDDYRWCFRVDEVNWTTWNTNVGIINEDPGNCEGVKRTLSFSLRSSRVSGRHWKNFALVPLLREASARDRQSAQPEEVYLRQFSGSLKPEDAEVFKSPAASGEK

With `CCCC1(CCC)C[C@@H](NC(=O)Nc2ccc3c(c2)NC(=O)CO3)c2cc(F)ccc2O1` [Example 107, 1-[(4R)-6-fluoro-2,2-dipropyl-3,4-dihydro-2H-chromen-4-yl]-3-(3-oxo-3,4-dihydro-2H-1,4-benzoxazin-6-yl)urea], the negative logarithm of the IC50 (pIC50) (commonly the negative decadic logarithm of the IC50, by convention in mol/L) in test [1] is 6.40. Moreover, the “human TRPV1 H^+ (max % remain)” value in test [2] stood at 113%.

For `O=C1COc2ccc(NC(=O)N[C@@H]3CC4(CCC4)Oc4ccc(F)cc43)cc2N1` [Example 108, 1-[(4R)-6-fluoro-3,4-dihydrospiro[chromene-2,1′-cyclobutan]-4-yl]-3-(3-oxo-3,4-dihydro-2H-1,4-benzoxazin-6-yl)urea], the negative logarithm of the IC50 (pIC50) in test [1] was 6.62. In test [2], the “human TRPV1 H^+ (max % remain)” value amounted to 104%.

For the molecule `CCC1(CC)C[C@@H](NC(=O)Nc2ccc3c(c2)NC(=O)CO3)c2cc(F)ccc2O1` [Example 109, 1-[(4R)-2,2-diethyl-6-fluoro-3,4-dihydro-2H-chromen-4-yl]-3-(3-oxo-3,4-dihydro-2H-1,4-benzoxazin-6-yl)urea], the negative logarithm of the IC50 (pIC50) in test [1] is 6.89. Besides, in test [2], the “human TRPV1 H^+ (max % remain)” value stood at 92%.

For the molecule `CCCC1(CCC)C[C@@H](NC(=O)Nc2ccc3c(c2)NC(=O)CO3)c2cccc(F)c2O1` [Example 110, 1-[(4R)-8-fluoro-2,2-dipropyl-3,4-dihydro-2H-chromen-4-yl]-3-(3-oxo-3,4-dihydro-2H-1,4-benzoxazin-6-yl)urea], in test [1], the negative-log IC50 (pIC50) is 6.82. Also, in test [2], the “human TRPV1 H^+ (max % remain)” value is on record as 111%.

Turning to `CCC1(CC)C[C@@H](NC(=O)Nc2ccc3c(c2)NC(=O)CO3)c2ccc(OC(F)(F)F)cc2O1` [Example 111, 1-[(4R)-2,2-diethyl-7-(trifluoromethoxy)-3,4-dihydro-2H-chromen-4-yl]-3-(3-oxo-3,4-dihydro-2H-1,4-benzoxazin-6-yl)urea], the pIC50 in test [1] is 6.72. Besides, in test [2], the “human TRPV1 H^+ (max % remain)” value is reported as 71%.

Take `CC1(C)C[C@@H](NC(=O)Nc2ccc3c(c2)NC(=O)CO3)c2ccccc2O1` [Example 112, 1-[(4R)-2,2-dimethyl-3,4-dihydro-2H-chromen-4-yl]-3-(3-oxo-3,4-dihydro-2H-1,4-benzoxazin-6-yl)urea]: in test [1], the pIC50 is 6.36. Further, the “human TRPV1 H^+ (max % remain)” value in test [2] stood at 101%.

As for `CC1(C)C[C@@H](NC(=O)Nc2ccc3c(c2)NC(=O)CO3)c2cc(F)ccc2O1` [Example 113, 1-[(4R)-6-fluoro-2,2-dimethyl-3,4-dihydro-2H-chromen-4-yl]-3-(3-oxo-3,4-dihydro-2H-1,4-benzoxazin-6-yl)urea], in test [1], the pIC50 was 6.11. Further, the “human TRPV1 H^+ (max % remain)” value in test [2] came out at 102%.

On to `CC1(C)C[C@@H](NC(=O)Nc2ccc3c(c2)NC(=O)CO3)c2ccc(Cl)cc2O1` [Example 114, 1-[(4R)-7-chloro-2,2-dimethyl-3,4-dihydro-2H-chromen-4-yl]-3-(3-oxo-3,4-dihydro-2H-1,4-benzoxazin-6-yl)urea], for which the pIC50 in test [1] was 7.25. Moreover, in test [2], the “human TRPV1 H^+ (max % remain)” value is 99%.

As for `O=C1COc2ccc(NC(=O)N[C@@H]3CCOc4cc(OC(F)(F)F)ccc43)cc2N1` [Example 115, 1-(3-oxo-3,4-dihydro-2H-1,4-benzoxazin-6-yl)-3-[(4R)-7-(trifluoromethoxy)-3,4-dihydro-2H-chromen-4-yl]urea], the pIC50 in test [1] is less than 4.42. In test [2], the “human TRPV1 H^+ (max % remain)” value is 91%.

Consider `O=C1COc2ccc(NC(=O)N[C@@H]3CC(CF)(CF)Oc4c(F)cccc43)cc2N1` [Example 116, 1-[(4R)-8-fluoro-2,2-bis(fluoromethyl)-3,4-dihydro-2H-chromen-4-yl]-3-(3-oxo-3,4-dihydro-2H-1,4-benzoxazin-6-yl)urea], for which the pIC50 in test [1] is 5.70. The “human TRPV1 H^+ (max % remain)” value in test [2] worked out at 99%.

As to `CC1(C)C[C@@H](NC(=O)Nc2ccc3c(c2)NC(=O)CO3)c2ccc(F)c(F)c2O1` [Example 117, 1-[(4R)-7,8-difluoro-2,2-dimethyl-3,4-dihydro-2H-chromen-4-yl]-3-(3-oxo-3,4-dihydro-2H-1,4-benzoxazin-6-yl)urea], the pIC50 in test [1] is 6.92. Also, the “human TRPV1 H^+ (max % remain)” value in test [2] is listed as 99%.

Take `O=C1COc2ccc(NC(=O)N[C@@H]3CCOc4ccc(F)cc43)cc2N1` [Example 118, 1-[(4R)-6-fluoro-3,4-dihydro-2H-chromen-4-yl]-3-(3-oxo-3,4-dihydro-2H-1,4-benzoxazin-6-yl)urea]: the pIC50 in test [1] is less than 4.42. Further, the “human TRPV1 H^+ (max % remain)” value in test [2] worked out at 101%.

Regarding `O=C1COc2ccc(NC(=O)N[C@@H]3CCc4cc(Cl)ccc43)cc2N1` [Example 119, 1-[(1R)-5-chloro-2,3-dihydro-1H-inden-1-yl]-3-(3-oxo-3,4-dihydro-2H-1,4-benzoxazin-6-yl)urea], in test [1], the pIC50 is 6.77. Also, the “human TRPV1 H^+ (max % remain)” value in test [2] is reported as 110%.

For the molecule `O=C1COc2ccc(NC(=O)N[C@@H]3CCOc4c3cccc4C(F)(F)F)cc2N1` [Example 120, 1-(3-oxo-3,4-dihydro-2H-1,4-benzoxazin-6-yl)-3-[(4R)-8-(trifluoromethyl)-3,4-dihydro-2H-chromen-4-yl]urea], the negative logarithm of the IC50 (pIC50) in test [1] was 6.70. In addition, the “human TRPV1 H^+ (max % remain)” value in test [2] was found to be 103%.

As to `O=C1COc2ccc(NC(=O)N[C@@H]3CCOc4cc(C(F)(F)F)ccc43)cc2N1` [Example 121, 1-(3-oxo-3,4-dihydro-2H-1,4-benzoxazin-6-yl)-3-[(4R)-7-(trifluoromethyl)-3,4-dihydro-2H-chromen-4-yl]urea], the pIC50 in test [1] is less than 4.42. Also, in test [2], the “human TRPV1 H^+ (max % remain)” value stood at 107%.

`O=C1COc2ccc(NC(=O)N[C@H]3CC4(CCC4)Oc4ccc(F)cc43)cc2N1` [Example 122, 1-[(4S)-6-fluoro-3,4-dihydrospiro[chromene-2,1′-cyclobutan]-4-yl]-3-(3-oxo-3,4-dihydro-2H-1,4-benzoxazin-6-yl)urea]: the pIC50 in test [1] was less than 4.42. For the same molecule, the “human TRPV1 H^+ (max % remain)” value in test [2] is reported as 104%.

Regarding `CC1(C)C[C@H](NC(=O)Nc2ccc3c(c2)NC(=O)CO3)c2cc(F)ccc2O1` [Example 123, 1-[(4S)-6-fluoro-2,2-dimethyl-3,4-dihydro-2H-chromen-4-yl]-3-(3-oxo-3,4-dihydro-2H-1,4-benzoxazin-6-yl)urea], the negative logarithm of the IC50 (pIC50) in test [1] is less than 4.42. For the same molecule, in test [2], the “human TRPV1 H^+ (max % remain)” value is recorded as 94%.

As to `O=C1COc2ccc(NC(=O)N[C@@H]3CC4(CCCC4)Oc4ccccc43)cc2N1` [Example 124, 1-[(4R)-3,4-dihydrospiro[chromene-2,1′-cyclopentan]-4-yl]-3-(3-oxo-3,4-dihydro-2H-1,4-benzoxazin-6-yl)urea], the negative logarithm of the IC50 (pIC50) in test [1] is 5.80. Besides, the “human TRPV1 H^+ (max % remain)” value in test [2] is recorded as 97%.

Regarding `C[C@@]1(C(F)(F)F)C[C@@H](NC(=O)Nc2ccc3c(c2)NC(=O)CO3)c2ccccc2O1` [Example 125, 1-[(2S,4R)-2-methyl-2-(trifluoromethyl)-3,4-dihydro-2H-chromen-4-yl]-3-(3-oxo-3,4-dihydro-2H-1,4-benzoxazin-6-yl)urea], the pIC50 in test [1] was 6.48. For the same molecule, in test [2], the “human TRPV1 H^+ (max % remain)” value came out at 96%.

As for `C[C@]1(C(F)(F)F)C[C@@H](NC(=O)Nc2ccc3c(c2)NC(=O)CO3)c2ccccc2O1` [Example 126, 1-[(2R,4R)-2-methyl-2-(trifluoromethyl)-3,4-dihydro-2H-chromen-4-yl]-3-(3-oxo-3,4-dihydro-2H-1,4-benzoxazin-6-yl)urea], the pIC50 in test [1] is 7.24. Further, the “human TRPV1 H^+ (max % remain)” value in test [2] is given as 87%.

With `C[C@@]1(CF)C[C@@H](NC(=O)Nc2ccc3c(c2)NC(=O)CO3)c2ccc(C(F)(F)F)cc2O1` [Example 127, 1-[(2S,4R)-2-(fluoromethyl)-2-methyl-7-(trifluoromethyl)-3,4-dihydro-2H-chromen-4-yl]-3-(3-oxo-3,4-dihydro-2H-1,4-benzoxazin-6-yl)urea], the pIC50 in test [1] is 7.17. For the same molecule, the “human TRPV1 H^+ (max % remain)” value in test [2] stood at 100%.

Regarding `C[C@]1(CF)C[C@@H](NC(=O)Nc2ccc3c(c2)NC(=O)CO3)c2ccc(C(F)(F)F)cc2O1` [Example 128, 1-[(2R,4R)-2-(fluoromethyl)-2-methyl-7-(trifluoromethyl)-3,4-dihydro-2H-chromen-4-yl]-3-(3-oxo-3,4-dihydro-2H-1,4-benzoxazin-6-yl)urea], the negative logarithm of the IC50 (pIC50) in test [1] is 7.47. For the same molecule, the “human TRPV1 H^+ (max % remain)” value in test [2] is recorded as 99%.

With `C[C@@]1(CF)C[C@@H](NC(=O)Nc2ccc3c(c2)NC(=O)CO3)c2ccc(Cl)cc2O1` [Example 129, 1-[(2S,4R)-7-chloro-2-(fluoromethyl)-2-methyl-3,4-dihydro-2H-chromen-4-yl]-3-(3-oxo-3,4-dihydro-2H-1,4-benzoxazin-6-yl)urea], in test [1], the negative-log IC50 (pIC50) is 6.92. In addition, in test [2], the “human TRPV1 H^+ (max % remain)” value amounted to 97%.

Consider `C[C@@]1(C(F)F)C[C@@H](NC(=O)Nc2ccc3c(c2)NC(=O)CO3)c2ccccc2O1` [Example 130, 1-[(2S,4R)-2-(difluoromethyl)-2-methyl-3,4-dihydro-2H-chromen-4-yl]-3-(3-oxo-3,4-dihydro-2H-1,4-benzoxazin-6-yl)urea], for which the pIC50 in test [1] is 6.00. The “human TRPV1 H^+ (max % remain)” value in test [2] turned out to be 98%.

Take `C[C@]1(C(F)F)C[C@@H](NC(=O)Nc2ccc3c(c2)NC(=O)CO3)c2ccccc2O1` [Example 131, 1-[(2R,4R)-2-(difluoromethyl)-2-methyl-3,4-dihydro-2H-chromen-4-yl]-3-(3-oxo-3,4-dihydro-2H-1,4-benzoxazin-6-yl)urea]: in test [1], the pIC50 is 6.44. The “human TRPV1 H^+ (max % remain)” value in test [2] stood at 89%.

Take `O=C1COc2ccc(NC(=O)NCC3CCc4ccc(C(F)(F)F)cc4O3)cc2N1` (stereo not shown) [Example 132, 1-(3-oxo-3,4-dihydro-2H-1,4-benzoxazin-6-yl)-3-{[7-(trifluoromethyl)-3,4-dihydro-2H-chromen-2-yl]methyl}urea]: the negative logarithm of the IC50 (pIC50) in test [1] is 4.51. Also, the “human TRPV1 H^+ (max % remain)” value in test [2] worked out at 98%.

The record behind these values is patent US8969325B2, “TRPV1 antagonists” (AbbVie Inc., priority 2011, dated 2015).
